Laboratory results from ChEMBL document CHEMBL1126745, “2,2-Dialkylnaphthalen-1-ones as new potassium channel activators” (J Med Chem, 1993).

Legend:
[1] = species: Rattus norvegicus; experiment: Percentage of inhibition of noradrenaline-induced contractions in rat portal vein at 10 uM (in vitro); assay type: functional
[2] = tested on: Rattus norvegicus; experiment: Change in systolic blood pressure at intervals of 1 hr after oral administration of 1 mg/kg of compound in spontaneously hypertensive rats (in vivo); Not significant; assay type: functional, Artery
[3] = species: Cavia porcellus; experiment: In vitro inhibition of spontaneous tone of guinea pig tracheal spirals; assay type: functional; settings: Trachea
[4] = species: Rattus norvegicus; experiment: In vitro inhibition of noradrenaline-induced contractions in rat portal vein; assay type: functional
[5] = tested on: Rattus norvegicus; experiment: Change in systolic blood pressure at intervals of 1 hr after oral administration of 1 mg/kg of compound in spontaneously hypertensive rats (in vivo); assay type: functional, Artery

SMILES | inhibition at 10 µM [1] | Delta blood pressure [2] | IC50 [3] | IC50 [4] | Max fall in blood pressure [5] | Delta blood pressure [5]
COc1ccc2c(c1)C(N1CCCC1=O)=CC(C)(C)C2=O | 20% | <20 mmHg |  |  |  | 
CC1(C)C=C(N2Cc3ccccc3C2=O)c2cc(C#N)ccc2C1=O |  |  | 1.3 µM | 0.6 µM | 34 mmHg | 
CC1(C)C(=O)c2ccccc2[C@@H](n2ccccc2=O)[C@@H]1O | 0% | <20 mmHg |  |  |  | 
CC1(C)C=C(N2CCCC2=O)c2cc(Br)ccc2C1=O |  |  | 7.3 µM | 10 µM |  | 
CC1(C)C(=O)c2ccc(S(=O)(=O)c3ccccc3)cc2[C@@H](n2ccccc2=O)[C@@H]1O |  |  | 0.7 µM | 0.3 µM |  | 
CC1(C)C(=O)c2ccc(C#N)cc2[C@@H](NC(=O)c2ccccn2)[C@@H]1O |  |  | > 10 µM | 23 µM |  | 
CNc1ccc2c(c1)C(n1ccccc1=O)=CC(C)(C)C2=O |  | <20 mmHg | 9.1 µM | 52 µM |  | 
CC1(C)C(=O)c2ccc(C#N)cc2[C@@H](NC(=O)c2ccccc2)[C@@H]1O |  |  | 1.8 µM |  | 31 mmHg | 
CC(=O)N[C@@H]1c2cc(C#N)ccc2C(=O)C(C)(C)[C@H]1O |  |  | 8.7 µM | 45 µM | 28.6 mmHg | 
CC1(C)C(=O)c2ccc(Br)cc2C(N2CCCC2=O)[C@@H]1O (stereo partly specified) | 40% |  | > 10 µM |  | 39 mmHg | 
CC1(C)C=C(n2ccccc2=O)c2ccc(Br)cc2C1=O |  |  | 4.7 µM | 2.7 µM | 37 mmHg | 
CC1(C)C=C(N2CCCCC2=O)c2cc(Br)ccc2C1=O |  |  | 3.5 µM | 8 µM | 43.6 mmHg | 
CC1(C)C(=O)c2ccc(Cl)cc2[C@@H](n2ccccc2=O)[C@@H]1O | 0% |  |  |  |  | 
CC1(C)C(=O)c2ccc(Br)cc2[C@@H](n2ccccc2=O)[C@@H]1O |  |  | > 10 µM | 28 µM | 31 mmHg | 
CC1(C)C(=O)c2ccc(C#N)cc2[C@@H](Oc2ccccn2)[C@@H]1O |  |  | 5.5 µM | 25 µM | 43 mmHg | 
CC1(C)C(=O)c2ccc(C#N)cc2[C@@H](NC(=O)c2ccc(Cl)cc2Cl)[C@@H]1O | 35% | <20 mmHg | > 10 µM |  |  | 
CC1(C)C(=O)c2ccc(C#N)cc2[C@@H](OC2=CC(=O)CC2)[C@@H]1O | 9% |  | > 10 µM |  |  | 50 mmHg
CC1(C)C=C(n2ccccc2=O)c2cc(S(=O)(=O)c3ccccc3)ccc2C1=O |  |  | 0.5 µM | 0.1 µM | 32.6 mmHg | 
CC1(C)C(=O)c2cc(Cl)c(Cl)cc2[C@@H](n2ccccc2=O)[C@@H]1O |  |  | 5 µM | 1.5 µM | 52 mmHg | 
CCC1(CC)CCc2cc(OC)ccc2C1=O |  |  | > 10 µM | 8 µM | 83 mmHg | 
CC1(C)C(=O)c2ccc(C#N)cc2[C@@H](NC(=O)c2ccncc2)[C@@H]1O | 39% | <20 mmHg | > 10 µM |  |  | 
CC1(C)C(=O)c2ccc(Br)cc2[C@@H](N2CCN=C2NC#N)[C@@H]1O | 8% |  | > 10 µM |  | 27.6 mmHg | 
CC1(C)C(=O)c2ccc(Br)cc2[C@@H](N2CCS/C2=N\C#N)[C@@H]1O | 26% |  |  |  | 30.5 mmHg | 

SMILES | inhibition at 10 µM [1] | Delta blood pressure [2] | IC50 [3] | IC50 [4] | Max fall in blood pressure [5] | Delta blood pressure [5]
CC(=O)N(C)c1ccc2c(c1)C(n1ccccc1=O)=CC(C)(C)C2=O |  |  | 3.1 µM | 4.3 µM | 74 mmHg | 
CC1(C)C(=O)c2ccc(C(F)(F)F)cc2[C@@H](n2ccccc2=O)[C@@H]1O |  |  | 1.4 µM |  |  | 
COC(=O)c1ccc2c(c1)C(n1ccccc1=O)=CC(C)(C)C2=O |  |  | 8.5 µM | 2.7 µM | 39 mmHg | 
CC1(C)C=C(n2ccccc2=O)c2cc(Br)ccc2C1(C)O (stereo unspecified) | 23% | <20 mmHg | 4.2 µM |  |  | 
CC1(C)C=C(N2CCCC2=O)c2cc(Cl)ccc2C1=O | 0% |  | > 10 µM |  | 32.5 mmHg | 
C=CCn1nc(O[C@@H]2c3cc(C#N)ccc3C(=O)C(C)(C)[C@H]2O)ccc1=O |  |  | 3.9 µM | 14 µM |  | 
COc1ccc(C(=O)N[C@@H]2c3cc(C#N)ccc3C(=O)C(C)(C)[C@H]2O)cc1 |  |  | 12.2 µM | 12 µM |  | 
CO/N=C1\c2ccc(C#N)cc2C(n2ccccc2=O)=CC1(C)C |  |  | > 10 µM | 25 µM | 32.4 mmHg | 
CC1(C)C=C(n2ccccc2=O)c2cc(C#N)ccc2/C1=N\O | 27% |  | 12.5 µM |  | 28 mmHg | 
CC(=O)N(C)c1ccc2c(c1)C(N1CCCC1=O)=CC(C)(C)C2=O |  |  | 2.5 µM | 17 µM | 23 mmHg | 
CC1(C)C(=O)c2ccc(Br)cc2[C@@H](N2Cc3ccccc3C2=O)[C@@H]1O |  |  | > 10 µM | 3.1 µM | 24 mmHg | 
CC1(C)C=C(n2ccccc2=O)c2cc(Cl)c(Cl)cc2C1=O |  |  | 0.1 µM | 0.7 µM | 58 mmHg | 
CCC1(CC)C=C(n2ccccc2=O)c2cc(Br)ccc2C1=O |  |  | 8 µM | 3.3 µM | 44 mmHg | 
C=Cc1ccc2c(c1)C(n1ccccc1=O)=CC(C)(C)C2=O |  |  | 4.6 µM | 1.5 µM | 30.6 mmHg | 
CC1(C)C(=O)c2ccc(C#N)cc2C(N2CCCC2=O)[C@@H]1O (stereo partly specified) | 12% |  | > 10 µM |  | 23 mmHg | 
CC1(C)C(=O)c2ccc(C#N)cc2[C@@H](n2ccccc2=O)[C@@H]1OC=O |  |  | 4.3 µM |  | 42 mmHg | 
CC(=O)O[C@H]1[C@H](n2ccccc2=O)c2cc(C#N)ccc2C(=O)C1(C)C |  |  | 2 µM | 23 µM |  | 
COC1c2ccc(Br)cc2C(n2ccccc2=O)=CC1(C)C (stereo unspecified) | 22% |  | 17 µM |  | 28 mmHg | 
CC1(C)C=C(NC(=O)c2ccccn2)c2cc(C#N)ccc2C1=O |  |  | 3.1 µM | 9 µM | 22.5 mmHg | 
CC1(C)C=C(n2ccccc2=O)c2cc(Cl)ccc2C1=O |  |  | 1.1 µM | 1.4 µM | 53.7 mmHg | 
CC(=O)N(C)c1ccc2c(c1)[C@@H](n1ccccc1=O)[C@H](O)C(C)(C)C2=O |  |  | > 10 µM | 33 µM | 94 mmHg | 
CC1(C)C(=O)c2ccc(C#N)cc2[C@@H](NC(=O)c2ccoc2)[C@@H]1O | 24% |  |  |  | 58 mmHg | 
CC1(C)C=C(N2CCCC2=O)c2ccc(C#N)cc2C1=O | 0% |  |  |  | 24.5 mmHg | 

SMILES | inhibition at 10 µM [1] | Delta blood pressure [2] | IC50 [3] | IC50 [4] | Max fall in blood pressure [5] | Delta blood pressure [5]
CCC1(CC)C=C(n2ccccc2=O)c2cc(C#N)ccc2C1=O |  |  | 2.6 µM | 7.8 µM | 35.6 mmHg | 
CC1(C)C(=O)c2ccc(Br)cc2[C@@H](Oc2ccccn2)[C@@H]1O | 32% |  |  |  | 33 mmHg | 
CCc1ccc2c(c1)C(n1ccccc1=O)=CC(C)(C)C2=O |  |  | 5.1 µM | 5.5 µM | 58 mmHg | 
CC1(C)C(=O)c2ccc(F)cc2[C@@H](n2ccccc2=O)[C@@H]1O | 0% |  |  |  | 21.5 mmHg | 
COc1ccc2c(c1)C(n1ccccc1=O)=CC(C)(C)C2=O |  |  | 3.1 µM | 21 µM |  | 
CC1(C)C=C(n2ccccc2=O)c2cc(F)ccc2C1=O |  |  | 3.9 µM | 19 µM | 35 mmHg | 
COC(=N)c1ccc2c(c1)C(n1ccccc1=O)=CC(C)(C)C2=O |  |  | 3.1 µM | 11 µM |  | 27.5 mmHg
CC1(C)C=C(n2ccccc2=O)c2cc(C(=O)O)ccc2C1=O | 0% | <20 mmHg | > 10 µM |  |  | 
CC1(C)C(=O)c2ccc(C#N)cc2[C@@H](NC(=O)c2cccnc2)[C@@H]1O |  |  | 4.1 µM | 2.8 µM | 50 mmHg | 
CC1(C)C(=O)c2ccc(Br)cc2[C@@H](Oc2ccc(=O)[nH]n2)[C@@H]1O |  |  | 4.4 µM | 0.8 µM |  | 
COc1ccc2c(c1)[C@@H](n1ccccc1=O)[C@H](O)C(C)(C)C2=O | 0% |  | > 10 µM |  | 42.9 mmHg | 
CC1(C)C=C(N2CCCC2=O)c2ccc(Br)cc2C1=O | 11% |  | > 10 µM |  | 54.5 mmHg | 
CC1(C)C(=O)c2ccc(C#N)cc2[C@@H](NC(=O)c2ccc([N+](=O)[O-])cc2)[C@@H]1O |  | <20 mmHg | 7.9 µM | 4.9 µM |  | 
CC1(C)C=C(N2CCCC2=O)c2ccccc2C1=O | 0% | <20 mmHg |  |  |  | 
Cn1nc(OC2=CC(C)(C)C(=O)c3ccc(C#N)cc32)ccc1=O | 0% |  |  |  |  | 24 mmHg
CC1(C)C=C(n2ccccc2=O)c2ccc(C#N)cc2C1=O | 0% |  | > 10 µM |  | 41 mmHg | 
CC(=O)c1ccc2c(c1)C(n1ccccc1=O)=CC(C)(C)C2=O |  |  | 1 µM | 3.3 µM | 56.5 mmHg | 
CC1(C)C(=O)c2ccc(C#N)cc2[C@@H](N2Cc3ccccc3C2=O)[C@@H]1O |  |  | 1.1 µM | 0.5 µM | 76 mmHg | 
CC1(C)C(=O)c2ccc(C#N)cc2[C@@H](n2ccccc2=O)[C@@H]1O |  |  | > 10 µM | 14 µM | 84 mmHg | 
CC1(C)C(=O)c2cc(Br)ccc2[C@@H](n2ccccc2=O)[C@@H]1O |  |  |  | 42 µM | 29.3 mmHg | 
CC(=O)O[C@H]1[C@H](n2ccccc2=O)c2cc(Br)ccc2C(=O)C1(C)C | 38% |  |  |  | 29 mmHg | 
